Data taken from patent publication US8987301B2, “Heteroarylaminoquinolines as TGF-beta receptor kinase inhibitors” (Merck Patent GmbH, priority 2009, dated 2015).

Target: T1, TβR (GST-ALK5) (Homo sapiens, UniProt P36897)
T1 sequence (P36897 34-503): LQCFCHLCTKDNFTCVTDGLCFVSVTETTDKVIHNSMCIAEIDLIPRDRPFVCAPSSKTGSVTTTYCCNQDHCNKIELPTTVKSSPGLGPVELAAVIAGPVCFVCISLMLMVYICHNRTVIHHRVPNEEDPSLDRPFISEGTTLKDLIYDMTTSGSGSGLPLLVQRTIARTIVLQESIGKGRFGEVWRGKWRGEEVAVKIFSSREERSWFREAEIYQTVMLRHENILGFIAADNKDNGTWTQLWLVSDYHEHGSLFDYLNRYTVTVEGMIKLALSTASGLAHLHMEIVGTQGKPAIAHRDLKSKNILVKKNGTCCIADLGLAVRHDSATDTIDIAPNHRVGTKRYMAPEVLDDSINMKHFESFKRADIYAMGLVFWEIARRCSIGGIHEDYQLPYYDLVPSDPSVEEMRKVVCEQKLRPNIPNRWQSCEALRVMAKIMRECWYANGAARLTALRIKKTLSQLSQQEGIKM
Assay: In-vitro (enzyme) flashplate kinase assay, TβR activity
Format: biochemical
Conditions: GST-ALK5, GST-SMAD2 substrate, 3 mM ATP
Description: In-Vitro (Enzyme) Assay for Determination of the Efficacy of Inhibitors of the Inhibition of TGF-Beta-Mediated Effects
The kinase assay was carried out as 384-well flashplate assay. […] The reaction was stopped using 25 μl of 200 mM EDTA solution, filtered with suction at room temperature after 30 min, and the wells were washed with 3 times 100 μl of 0.9% NaCl solution. Radioactivity was measured in the TopCount. The IC50 values were calculated using RS1. Above and below, all temperatures were indicated in ° C.

IC50	SMILES
1000 to 10000 nM	Fc1ccc(Cl)cc1-c1cc(Nc2ccnc(N(c3ccnc(Cl)c3)c3cc(-c4cc(Cl)ccc4F)nc4ccccc34)c2)c2ccccc2n1 [compound 022]
< 500 nM	COc1ccc2c(Nc3cc(-c4cc(Cl)ccc4F)nc4ccccc34)ccnc2c1 [compound 075]
< 500 nM	COC(=O)c1cnccc1Nc1cc(-c2cc(Cl)ccc2F)nc2ccccc12 [compound 116]
1000 to 10000 nM	O=c1[nH]c2cnccc2n(-c2cc(-c3cc(Cl)ccc3F)nc3ccccc23)c1=O [compound 082]
> 10000 nM	Fc1ccc(Cl)cc1-c1cc(NCc2ccncc2)c2ccccc2n1 [compound 060]
1000 to 10000 nM	Nc1cnncc1Nc1cc(-c2cc(Cl)ccc2F)nc2ccccc12 [compound 092]
> 10000 nM	Clc1ccc(-c2cc(Nc3ccncc3)c3ccccc3n2)cc1Cl [compound 108]
> 10000 nM	CN1CCN(c2cc(Nc3cc(-c4cc(Cl)ccc4F)nc4ccccc34)ncn2)CC1 [compound 103]
> 10000 nM	CN1CCC(c2nc3cnccc3n2-c2cc(-c3cc(Cl)ccc3F)nc3ccccc23)CC1 [compound 028]
500 to 1000 nM	COc1ccc(-c2cc(Nc3ccncc3)c3ccccc3n2)cc1 [compound 042]
> 10000 nM	Fc1ccc(Cl)cc1-c1cc(Nc2cc(N3CCOCC3)ncn2)c2ccccc2n1 [compound 106]
< 500 nM	Fc1ccc(Cl)cc1-c1cc(-n2cnc3cnccc32)c2ccccc2n1 [compound 077]
> 10000 nM	CCOc1cc(Nc2cc(-c3cc(Cl)ccc3F)nc3ccccc23)ccn1 [compound 101]
> 10000 nM	Fc1ccc(Cl)cc1-c1cc(Oc2ccncc2)c2ccccc2n1 [compound 006]
1000 to 10000 nM	Fc1ccc(Cl)cc1-c1cc(Nc2ccnc(Cl)c2)c2ccccc2n1 [compound 021]
< 500 nM	Fc1ccc(Cl)cc1-c1cc(-n2ccc3cnccc32)c2ccccc2n1 [compound 014]
< 500 nM	OCc1cnccc1Nc1cc(-c2ccccc2F)nc2ccccc12 [compound 127]

IC50	SMILES
1000 to 10000 nM	COc1ccccc1-c1cc(Nc2ccncc2)c2ccccc2n1 [compound 052]
1000 to 10000 nM	O=S(=O)(O)Nc1cnccc1Nc1cc(-c2cc(Cl)ccc2F)nc2ccccc12 [compound 041]
1000 to 10000 nM	CN1CCN(C(=O)c2cnccc2Nc2cc(-c3cc(Cl)ccc3F)nc3ccccc23)CC1 [compound 126]
< 500 nM	CN(C)CCC(=O)Nc1cnccc1Nc1cc(-c2cc(Cl)ccc2F)nc2ccccc12 [compound 064]
1000 to 10000 nM	O=[N+]([O-])c1cnccc1Nc1cc(-c2cc(Cl)ccc2F)nc2ccccc12 [compound 018, [2-(5-Chloro-2-fluoro-phenyl)-quinolin-4-yl]-(3-nitro-pyridin-4-yl)-amine]
1000 to 10000 nM	O=C(O)c1cc(Nc2cc(-c3cc(Cl)ccc3F)nc3ccccc23)ccn1 [compound 124]
1000 to 10000 nM	c1ccc2c(Nc3ccncc3)cc(C3CCCCC3)nc2c1 [compound 047]
1000 to 10000 nM	CN(C)c1cccc(-c2cc(Nc3ccncc3)c3ccccc3n2)c1 [compound 079]
> 10000 nM	Fc1ccc(Cl)cc1-c1cc(Nc2ccccn2)c2ccccc2n1 [compound 005]
< 500 nM	CNC(=O)c1cnccc1Nc1cc(-c2cc(Cl)ccc2F)nc2ccccc12 [compound 119]
1000 to 10000 nM	CS(=O)(=O)Nc1cnccc1N(c1cc(-c2cc(Cl)ccc2F)nc2ccccc12)S(C)(=O)=O [compound 040]
< 500 nM	CCC(=O)Nc1cc(Nc2cc(-c3cc(Cl)ccc3F)nc3ccccc23)ccn1 [compound 113]
< 500 nM	FC(F)(F)c1cccc(-c2cc(Nc3ccncc3)c3ccccc3n2)c1 [compound 051]
1000 to 10000 nM	Nc1nc(N)nc(Nc2cc(-c3cc(Cl)ccc3F)nc3ccccc23)n1 [compound 117]
1000 to 10000 nM	Nc1cc(N(c2cc(-c3cc(Cl)ccc3F)nc3ccccc23)c2cc(-c3cc(Cl)ccc3F)nc3ccccc23)ncn1 [compound 037]
1000 to 10000 nM	O=C(Nc1cnccc1Nc1cc(-c2cc(Cl)ccc2F)nc2ccccc12)C(F)(F)F [compound 033]
